Experimental data published in US8129398B2 (priority 2008, dated 2012).

Target: T1, HIV-integrase (Human immunodeficiency virus type 1 group M subtype B, UniProt P12497)
T1 construct: Recombinant integrase (0.26 ng) was incubated with the beads
Assay: HIV-Integrase Inhibition Activity (SPA bead integration assay with P33 labeled target DNA)
Assay type: biochemical
Conditions: recombinant integrase, class symbols; read-out: in vitro activity
Description: HIV-Integrase Inhibition Activity. To evaluate in-vitro activity against HIV-integrase, 5 pmole of biotin labeled substrate DNA was bound to 100 μg of Streptavidin coated PVT SPA beads (Amersham Pharmacia Biotech). Recombinant integrase (0.26 ng) was incubated with the beads for 90 min at 37° C. Unbound enzyme was removed by washing the complex followed by addition of inhibitors and 0.1 fmol of P33 labeled target DNA. The reaction was stopped by adding EDTA to a final concentration of 10 mM. Samples were counted in TopCountNXT (Packard) and the CPM was used as a measure of integration. The reaction condition was as described in A. Engelman and R. Craigie, J. Virol. 69, 5908-5911 (1995). The sequences of substrate and target DNA were described in Nucleic Acid Research 22, 1121-1122 (1994). Activity equal to A refers to a compound having IC50=<10 nM while B and C denote compounds having […] and IC50>100 nM respectively.

`CN(C(=O)C(=O)NC12CCC(CC1)Cn1c2nc(C(=O)NCc2ccc(F)cc2)c(O)c1=O)C1CC1` [Example 82, N-Cyclopropyl-N′-(2-((4-fluorobenzyl)carbamoyl)-3-hydroxy-4-oxo-6,7,8,9-tetrahydro-7,10-ethanopyrimido[1,2-a]azepin-10(4H)-yl)-N-methylethanediamide] and `CC(C)CN(C)C(=O)C(=O)NC12CCC(CC1)Cn1c2nc(C(=O)NCc2ccc(F)cc2)c(O)c1=O` [Example 99, N′-(2-((4-Fluorobenzyl)carbamoyl)-3-hydroxy-4-oxo-6,7,8,9-tetrahydro-7,10-ethanopyrimido[1,2-a]azepin-10(4H)-yl)-N-methyl-N-(2-methylpropyl)ethanediamide] cannot be ordered by IC50: < 0.01 µM for the first, < 0.01 µM for the second.

`O=C(NC12CCC(CC1)Cn1c2nc(C(=O)NCc2ccc(F)cc2)c(O)c1=O)C(=O)N1CCN(c2ccccn2)CC1` [Example 78, N-(4-Fluorobenzyl)-3-hydroxy-4-oxo-10-((oxo(4-(2-pyridinyl)-1-piperazinyl)acetyl)amino)-4,6,7,8,9,10-hexahydro-7,10-ethanopyrimido[1,2-a]azepine-2-carboxamide] and `O=C(NC12CCC(CC1)Cn1c2nc(C(=O)NCc2ccc(F)cc2)c(O)c1=O)C(=O)N1CCC(O)CC1` [Example 63, N-(4-Fluorobenzyl)-3-hydroxy-10-(((4-hydroxy-1-piperidinyl)(oxo)acetyl)amino)-4-oxo-4,6,7,8,9,10-hexahydro-7,10-ethanopyrimido[1,2-a]azepine-2-carboxamide] cannot be ordered by IC50: < 0.01 µM for the first, < 0.01 µM for the second.

`COCCN(C)C(=O)C(=O)NC12CCC(CC1)Cn1c2nc(C(=O)NCc2ccc(F)c(C)c2)c(O)c1=O` [Example 134, N′-(2-((4-Fluoro-3-methylbenzyl)carbamoyl)-3-hydroxy-4-oxo-6,7,8,9-tetrahydro-7,10-ethanopyrimido[1,2-a]azepin-10(4H)-yl)-N-(2-methoxyethyl)-N-methylethanediamide] and `COc1cc(CNC(=O)c2nc3n(c(=O)c2O)CC2CCC3(NC(=O)C(=O)N(C)C)CC2)ccc1F` [Example 133, N′-(2-((4-Fluoro-3-methoxybenzyl)carbamoyl)-3-hydroxy-4-oxo-6,7,8,9-tetrahydro-7,10-ethanopyrimido[1,2-a]azepin-10(4H)-yl)-N,N-dimethylethanediamide] cannot be ordered by IC50: < 0.01 µM for the first, < 0.01 µM for the second.

`COC(=O)C(=O)NC12CCC(CCn3c1nc(C(=O)NCc1ccc(F)cc1)c(O)c3=O)C2` (stereo not drawn) [Example 210, Acetic acid, [[2-[[[(4-fluorophenyl)methyl]amino]carbonyl]-7,8,9,10-tetrahydro-3-hydroxy-4-oxo-8,1′-methano-4H-pyrimido[1,2-a]azocin-11(6H)-yl]amino]oxo-, methyl ester] and `CC(C)N(C)C(=O)C(=O)NC12CCC(CCn3c1nc(C(=O)NCc1ccc(F)cc1)c(O)c3=O)C2` (stereo not drawn) [Example 206, Ethanediamide, N′-[2-[[[(4-fluorophenyl)methyl]amino]carbonyl]-7,8,9,10-tetrahydro-3-hydroxy-4-oxo-8,11-methano-4H-pyrimido[1,2-a]azocin-11(6H)-yl]-N-methyl-N-(1-methylethyl)-] cannot be ordered by IC50: < 0.01 µM for the first, < 0.01 µM for the second.

`CS(=O)(=O)NC12CCC(CC1)n1c2nc(C(=O)NCc2ccc(F)cc2)c(O)c1=O` [Example 13, 6,9-ethano-4H-pyrido[1,2-a]pyrimidine-2-carboxamide, N-[(4-fluorophenyl)methyl]-6,7,8,9-tetrahydro-3-hydroxy-9-[(methylsulfonyl)amino]-4-oxo-] and `CS(=O)(=O)N1CCCC[C@H]1C(=O)NC12CCC(CC1)Cn1c2nc(C(=O)NCc2ccc(F)cc2)c(O)c1=O` [Example 266, 7,10-Ethanopyrimido[1,2-a]azepine-2-carboxamide, N-[(4-fluorophenyl)methyl]-4,6,7,8,9,10-hexahydro-3-hydroxy-10-[[[(2S)-1-(methylsulfonyl)-2-piperidinyl]carbonyl]amino]-4-oxo-] cannot be ordered by IC50: < 0.01 µM for the first, < 0.01 µM for the second.

`Cc1cc(C(=O)NC23CCC(CC2)Cn2c3nc(C(=O)NCc3ccc(F)cc3)c(O)c2=O)nn1C(C)(C)C` [Example 240] and `Cc1cc(C(=O)NC23CCC(CC2)Cn2c3nc(C(=O)NCc3ccc(F)cc3)c(O)c2=O)no1` [Example 28, N-(4-Fluorobenzyl)-3-hydroxy-10-(((5-methyl-3-isoxazolyl)carbonyl)amino)-4-oxo-4,6,7,8,9,10-hexahydro-7,10-ethanopyrimido[1,2-a]azepine-2-carboxamide] cannot be ordered by IC50: < 0.01 µM for the first, < 0.01 µM for the second.

Compared with `Cc1c(F)cc(Br)c(CNC(=O)c2nc3n(c(=O)c2O)CC2CCC3(N(C)C(=O)C(=O)N(C)C)CC2)c1Br` [Example 162, N-(2-((2,6-Dibromo-4-fluoro-3-methylbenzyl)carbamoyl)-3-hydroxy-4-oxo-6,7,8,9-tetrahydro-7,10-ethanopyrimido[1,2-a]azepin-10(4H)-yl)-N,N′,N′-trimethylethanediamide], `CN(C)C(=O)C(=O)NC12CCC(CC1)Cn1c2nc(C(=O)NCc2ccc(F)cc2-c2nncn2C)c(O)c1=O` [Example 109, N′-(2-((4-Fluoro-2-(4-methyl-4H-1,2,4-triazol-3-yl)benzyl)carbamoyl)-3-hydroxy-4-oxo-6,7,8,9-tetrahydro-7,10-ethanopyrimido[1,2-a]azepin-10(4H)-yl)-N,N-dimethylethanediamide] is higher in IC50: < 0.01 µM for the first, 0.01 to 0.1 µM for the second.

`Cn1cc(C(=O)NC23CCC(CC2)Cn2c3nc(C(=O)NCc3ccc(F)cc3)c(O)c2=O)nn1` [Example 248, 7,10-Ethanopyrimido[1,2-a]azepine-2-carboxamide, N-[(4-fluorophenyl)methyl]-4,6,7,8,9,10-hexahydro-3-hydroxy-10-[[(1-methyl-1H-1,2,3-triazol-4-yl)carbonyl]amino]-4-oxo-] and `COCCOC(=O)NC12CCC(CC1)Cn1c2nc(C(=O)NCc2ccc(F)cc2)c(O)c1=O` [Example 259, Carbamic acid, [2-[[[(4-fluorophenyl)methyl]amino-0]carbonyl]-6,7,8,9-tetrahydro-3-hydroxy-4-oxo-7,10-ethanopyrimido[1,2-a]azepin-10(4H)-yl]-, 2-methoxyethyl ester] cannot be ordered by IC50: < 0.01 µM for the first, < 0.01 µM for the second.

`Cc1cc(CNC(=O)c2nc3n(c(=O)c2O)CCC2CCC3(NC(=O)C(=O)N3CC[C@@H](F)C3)C2)ccc1F` (stereo partly drawn) [Example 216, 8,11-Methano-4H-pyrimido[1,2-a]azocine-2-carboxamide, N-[(4-fluoro-3-methylphenyl)methyl]-11-[[2-[(3R)-3-fluoro-1-pyrrolidinyl]-1,2-dioxoethyl]amino]-6,7,8,9,10,11-hexahydro-3-hydroxy-4-oxo-] and `Cc1cc(CNC(=O)c2nc3n(c(=O)c2O)CC[C@@H]2CC[C@@]3(NC(=O)C(=O)N(C)C)C2)ccc1F` [Example 415, Ethanediamide, N′-[(8S,11R)-2-[[[(4-fluoro-3-methylphenyl)methyl]amino]carbonyl-7,8,9,10-tetrahydro-3-hydroxy-4-oxo-8,11-methano-4H-pyrimido[1,2-a]azocin-1](6H)-yl]-N,N-dimethyl-] cannot be ordered by IC50: < 0.01 µM for the first, < 0.01 µM for the second.

`O=C(NC12CCC(CCn3c1nc(C(=O)NCc1ccc(F)cc1)c(O)c3=O)C2)C(=O)N1CCCC1` (stereo not drawn) [Example 200, 8,11-Methano-4H-pyrimido[1,2-a]azocine-2-carboxamide, 11-[[1,2-dioxo-2-(1-pyrrolidinyl)ethyl]amino]-N-[(4-fluorophenyl)methyl]-6,7,8,9,10,11-hexahydro-3-hydroxy-4-oxo] and `CO[C@@H]1C[C@@H](C(=O)NC23CCC(CC2)Cn2c3nc(C(=O)NCc3ccc(F)cc3)c(O)c2=O)N(C(C)=O)C1` [Example 273, 7,10-Ethanopyrimido[1,2-a]azepine-2-carboxamide, 10-[[[(2S,4R)-1-acetyl-4-methoxy-2-pyrrolidinyl]carbonyl]amino]-N-[(4-fluorophenyl)methyl]-4,6,7,8,9,10-hexahydro-3-hydroxy-4-oxo-] cannot be ordered by IC50: < 0.01 µM for the first, < 0.01 µM for the second.

`O=C(NC12CCC(CC1)Cn1c2nc(C(=O)NCc2ccc(F)cc2)c(O)c1=O)c1ccc(C(F)(F)F)nc1` [Example 323, 7,10-Ethanopyrimido[1,2-a]azepine-2-carboxamide, N-[(4-fluorophenyl)methyl]-4,6,7,8,9,10-hexahydro-3-hydroxy-4-oxo-10-[[[6-(trifluoromethyl)-3-pyridinyl]carbonyl]amino]-] and `Cc1cc(CNC(=O)c2nc3n(c(=O)c2O)CC2CCC3(NC(=O)C(C)(C)n3cc(C(=O)O)nn3)CC2)ccc1F` [Example 285, 1H-1,2,3-Triazole-4-carboxylic acid, 1-[2-[[2-[[[(4-fluoro-3-methylphenyl)methyl]amino]carbonyl]-6,7,8,9-tetrahydro-3-hydroxy-4-oxo-7,10-ethanopyrimido[1,2-a]azepin-10(4H)-yl]amino]-1,1-dimethyl-2-oxoethyl]-] cannot be ordered by IC50: < 0.01 µM for the first, < 0.01 µM for the second.

First: CO[C@H]1C[C@@H](C(=O)NC23CCC(CC2)Cn2c3nc(C(=O)NCc3ccc(F)c(C)c3)c(O)c2=O)N(C(=O)c2nnc(C)o2)C1 [Example 297, 7,10-Ethanopyrimido[1,2-a]azepine-2-carboxamide, N-[(4-fluoro-3-methylphenyl)methyl]-4,6,7,8,9,10-hexahydro-3-hydroxy-10-[[[(2S,4S)-4-methoxy-1-[(5-methyl-1,3,4-oxadiazol-2-yl)carbonyl]-2-pyrrolidinyl]carbonyl]amino]-4-oxo-]
Second: Cc1cnnn1-c1cc(F)ccc1CNC(=O)c1nc2n(c(=O)c1O)CC1CCC2(NC(=O)C(=O)N(C)C)CC1 [Example 106, N′-(2-((4-Fluoro-2-(5-methyl-1H-1,2,3-triazol-1-yl)benzyl)carbamoyl)-3-hydroxy-4-oxo-6,7,8,9-tetrahydro-7,10-ethanopyrimido[1,2-a]azepin-10(4H)-yl)-N,N-dimethylethanediamide]
The IC50 of the first is lower: < 0.01 µM for the first, 0.01 to 0.1 µM for the second. The first is the more potent here.
